Measurements as given in ChEMBL document CHEMBL5137057, “Small Carbohydrate Derivatives as Potent Antibiofilm Agents” (J Med Chem, 2022).
In brackets after ≈: the same amount, converted by molar mass.

Columns and labels:
[1] = target: Type 1 fimbrin D-mannose specific adhesin (Escherichia coli K-12) (UniProt P08191); assay: Inhibition of Escherichia coli UTI89 FimH by hemagglutination assay
Staphylococcus aureus [2] = assay: Antibiofilm activity against methicillin-sensitive Staphylococcus aureus UAMS-1 measured after 22 hrs by crystal violet staining based assay; type: functional; settings: for MIC50: Staphylococcus aureus, UAMS-1
[3] = target: T1, Fucose-binding lectin PA-IIL (Pseudomonas aeruginosa (strain ATCC 15692 / DSM 22644 / CIP 104116 / JCM14847 / LMG 12228 / 1C / PRS 101 / PAO1), UniProt Q9HYN5); assay: Binding affinity to Pseudomonas aeruginosa PAO1 LecB assessed as dissociation constant by isothermal titration calorimetry
Target sequence in this assay (Q9HYN5 whole entry): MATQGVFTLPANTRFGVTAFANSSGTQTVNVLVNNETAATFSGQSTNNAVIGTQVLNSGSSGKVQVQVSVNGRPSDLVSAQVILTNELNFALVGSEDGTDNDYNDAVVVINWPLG

[4] = target: T1, Fucose-binding lectin PA-IIL; assay: Inhibition of Pseudomonas aeruginosa PA14 LecB incubated for 22 to 24 hrs by fluorescence polarization based competitive binding analysis
Target sequence in this assay (Q9HYN5 1-115): as the sequence (Q9HYN5 whole entry) above

[5] = target: T1, Fucose-binding lectin PA-IIL; assay: Binding affinity to Pseudomonas aeruginosa PA14 LecB assessed as dissociation constant by isothermal titration calorimetry
Target sequence in this assay (Q9HYN5 1-115): as the sequence (Q9HYN5 whole entry) above

Pseudomonas aeruginosa [6] = assay: Antibiofilm activity against Pseudomonas aeruginosa PA14 measured after 48 hrs by confocal laser scanning microscope analysis relative to control; type: functional
[7] = target: T2, PA-I galactophilic lectin (Pseudomonas aeruginosa (strain ATCC 15692 / PAO1 / 1C / PRS 101 / LMG12228), UniProt Q05097); assay: Binding affinity to Pseudomonas aeruginosa LecA assessed as dissociation constant by isothermal titration calorimetry
T2 sequence (Q05097 whole entry): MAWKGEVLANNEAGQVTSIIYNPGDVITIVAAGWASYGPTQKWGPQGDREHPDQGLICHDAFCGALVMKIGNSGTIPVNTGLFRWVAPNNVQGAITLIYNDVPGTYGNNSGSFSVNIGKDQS

[8] = target: T2, PA-I galactophilic lectin; assay: Inhibition of Pseudomonas aeruginosa LecA incubated for 4 to 6 hrs by fluorescence polarization based competitive binding analysis
Escherichia coli = assay: Antibiofilm activity against Escherichia coli UTI89; type: functional, organism-based
Staphylococcus aureus [9] = assay: Potentiation of vancomycin-induced antibacterial activity against methicillin resistant Staphylococcus aureus Mu50 in presence of vancomycin; type: functional, organism-based
Staphylococcus aureus [10] = assay: Potentiation of vancomycin-induced antibacterial activity against methicillin resistant Staphylococcus aureus Mu50 pretreated with compound followed by vancomycin addition; type: functional, organism-based
[11] = target: Type 1 fimbrin D-mannose specific adhesin (Escherichia coli K-12) (UniProt P08191); assay: Relative inhibitory potency, ratio of methyl alpha-D-mannose Kd to compound Kd for binding affinity to Escherichia coli FimH by ELISA assay; settings: K12
[12] = tested on: Mycolicibacterium smegmatis; assay: Antimicrobial activity against Mycobacterium smegmatis MC2 155 assessed as planktonic growth inhibition measured after 48 hrs by microplate reader analysis; type: functional
[13] = tested on: Mycolicibacterium smegmatis; assay: Antibiofilm activity against Mycobacterium smegmatis MC2 155 assessed as […] measured after 48 hrs by crystal violet staining based analysis; type: functional
[14] = target: Type 1 fimbrin D-mannose specific adhesin (Escherichia coli K-12) (UniProt P08191); assay: Relative inhibitory potency, ratio of methyl alpha-D-mannose Kd to compound Kd for binding affinity to C-terminal His-tagged truncated Escherichia coli FimH by SPR analysis; settings: K12
Serratia marcescens = assay: Antibacterial activity against Serratia marcescens ATCC 27117 assessed as inhibition of biofilm formation at 50 ug/ml incubated for 24 hrs by crystal violet staining based analysis relative to control; type: functional; design: scale not given: the % may be the effect or the level left; settings: dose 50 µg/ml
Staphylococcus aureus [15] = assay: Antibacterial activity against Staphylococcus aureus ATCC 25923 assessed as inhibition of biofilm formation incubated for 24 hrs by crystal violet staining based analysis relative to control; type: functional; design: scale not given: the % may be the effect or the level left
Pseudomonas aeruginosa [16] = assay: Antibacterial activity against Pseudomonas aeruginosa PAO1 NCTC 10332 assessed as inhibition of biofilm formation incubated for 24 hrs by crystal violet staining based analysis; type: functional, organism-based; settings: PAO1 NCTC 10332, 24 h
Streptococcus agalactiae [17] = assay: Antibiofilm activity against Streptococcus agalactiae GRS90; type: functional; settings: dose 128 µg/ml; time 22 hrs
Streptococcus agalactiae [18] = assay: Antibiofilm activity against Streptococcus agalactiae GB2; type: functional

Sequence of Type 1 fimbrin D-mannose specific adhesin (Escherichia coli K-12) (P08191 whole entry, the tested form may be a part): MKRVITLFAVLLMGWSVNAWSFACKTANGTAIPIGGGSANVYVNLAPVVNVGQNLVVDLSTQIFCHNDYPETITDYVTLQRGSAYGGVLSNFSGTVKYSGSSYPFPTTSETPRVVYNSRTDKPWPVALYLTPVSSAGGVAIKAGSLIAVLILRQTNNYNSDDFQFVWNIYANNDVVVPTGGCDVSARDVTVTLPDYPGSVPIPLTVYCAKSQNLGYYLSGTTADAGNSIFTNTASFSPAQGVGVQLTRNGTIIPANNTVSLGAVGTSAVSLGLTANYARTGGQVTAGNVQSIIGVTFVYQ

Cc1cc(-c2ccc3ccn(C(=O)Nc4cccnc4)c(=O)c3c2)ccc1O[C@H]1O[C@H](CO)[C@@H](O)[C@H](O)[C@@H]1O
EC>90 [1]: 62 nM

C[C@@H]1O[C@@H](Oc2c(O)cc3c(=O)oc4c(O)c(O)cc5c(=O)oc2c3c45)[C@H](O)[C@H](O)[C@H]1O
MBIC50 (Staphylococcus aureus [2]): 64 µg/mL | MBIC90 (Staphylococcus aureus [2]): 128 µg/mL | MIC50 (Staphylococcus aureus [2]): > 512 µg/mL

Cc1cc(C)c(S(=O)(=O)NC[C@H]2O[C@@H](C)[C@@H](O)[C@@H](O)[C@@H]2O)c(C)c1
Kd [3]: 1.27 µM | IC50 [4]: 0.34 µM | Kd [5]: 0.31 µM | Activity (Pseudomonas aeruginosa [6]): 80%

OC[C@H]1O[C@@H](OCc2cn([C@H]3[C@H](O)[C@@H](O)[C@H](n4cc(-c5ccc(-c6cn([C@@H]7O[C@H](CO)[C@@H](n8cc(CO[C@@H]9O[C@H](CO)[C@H](O)[C@H](O)[C@H]9O)nn8)[C@H](O)[C@H]7O)nn6)cc5)nn4)O[C@@H]3CO)nn2)[C@H](O)[C@@H](O)[C@H]1O
Kd [7]: 0.012 µM

CNC(=O)c1cccc(-c2ccc(O[C@H]3O[C@H](CO)[C@@H](O)[C@H](O)[C@@H]3O)cc2)c1
EC>90 [1]: 500 nM

O[C@H]1[C@@H](O)[C@@H](C2CO2)O[C@@H](Oc2ccccc2)[C@@H]1O (some centres undefined)
IC50 [8]: 64 µM

Cc1cc(-c2ccc3cc[nH]c(=O)c3c2)ccc1O[C@H]1O[C@H](CO)[C@@H](O)[C@H](O)[C@@H]1O
IC50 (Escherichia coli): 0.13 µM | EC>90 [1]: 31 nM

COc1ccc(/C=N/NC(=O)c2ccc(O[C@@H]3O[C@H](CO)[C@H](O)[C@H](O)[C@H]3O)cc2)cc1
IC50 [8]: 55.5 µM | Kd [7]: 5.6 µM

C[C@@H]1O[C@H](CNS(=O)(=O)c2cccs2)[C@@H](O)[C@H](O)[C@@H]1O
Activity (Pseudomonas aeruginosa [6]): 80%

O=C(NC[C@]1(O)CO[C@H](CN2C(=O)c3ccccc3C2=O)[C@H]1O)c1ccccc1Cl
EC50 (Staphylococcus aureus [9]): 1.27 µM | EC50 (Staphylococcus aureus [10]): 0.26 µM

O=C(NC[C@@H]1O[C@H](CNC(=O)c2ccccc2Cl)[C@@H](O)[C@H]1O)c1ccccc1
EC50 (Staphylococcus aureus [9]): 3.71 µM

CCOc1c(Nc2ccc(O[C@H]3O[C@H](CO)[C@@H](O)[C@H](O)[C@@H]3O)c(Cl)c2)c(=O)c1=O
Ratio [11]: 6900

OC[C@H]1O[C@H](O[C@@H]2C[C@@H](O)[C@H](O)[C@@H](CO)O2)[C@H](O)[C@@H](O)[C@@H]1O
MIC [12]: > 500 µM | MBIC [13]: 50 µM

CNC(=O)c1cc(C(=O)NC)cc(-c2ccc(O[C@H]3O[C@H](CO)[C@@H](O)[C@H](O)[C@@H]3O)c(C)c2)c1
EC>90 [1]: 16 nM

O=C(O)/C=C(\C[C@@H]1O[C@H](CO)[C@H](O)[C@H](O)[C@H]1O)c1ccccc1
Kd [7]: 37 µM

CCOc1c(Nc2ccc(O[C@H]3O[C@H](CO)[C@@H](O)[C@H](O)[C@@H]3O)cc2)c(=O)c1=O
Ratio [11]: 1800

OC[C@H]1O[C@@H](Sc2ccc3ccccc3c2)[C@H](O)[C@@H](O)[C@H]1O
EC50 (Staphylococcus aureus [9]): 7.97 µM

OC[C@H]1O[C@H](O[C@H]2S[C@H](CO)[C@@H](O)[C@H](O)[C@H]2O)[C@H](O)[C@@H](O)[C@@H]1O
MIC [12]: > 500 µM | MBIC [13]: 100 µM

OC[C@H]1O[C@@H](Oc2ccccc2)[C@H](O)[C@@H](O)[C@H]1O
IC50 [8]: 13.2 µM

Cc1cc(-c2ccc3ccn(CC(=O)Nc4cccnc4)c(=O)c3c2)ccc1O[C@H]1O[C@H](CO)[C@@H](O)[C@H](O)[C@@H]1O
IC50 (Escherichia coli): 0.018 µM | EC>90 [1]: 1 nM

Cc1cc(=O)oc2ccc(O[C@H]3O[C@H](CO)[C@@H](O)[C@H](O)[C@@H]3O)cc12
Ratio [14]: 380

CNC(=O)c1cccc(-c2ccc(O[C@H]3O[C@H](CO)[C@@H](O)[C@H](O)[C@@H]3O)c(C)c2)c1
EC>90 [1]: 62 nM

O[C@H]1[C@@H](O)[C@H](C2CO2)O[C@@H](Oc2ccccc2)[C@@H]1O (single isomer, unassigned)
IC50 [8]: > 3000 µM

O=C(NC[C@]1(O)CO[C@H](CNC(=O)c2ccccc2Cl)[C@H]1O)c1ccccc1
EC50 (Staphylococcus aureus [9]): 7.98 µM

CCCCCCC[C@H](CC(=O)NCc1ccccc1)OC(=O)C[C@@H](CCCCCCC)O[C@@H]1O[C@@H](C)[C@H](O)[C@@H](O)[C@H]1O[C@@H]1O[C@@H](C)[C@H](O)[C@@H](O)[C@H]1O
Activity (Serratia marcescens): >80% | Activity (Staphylococcus aureus [15]): >90%

CCCCCCC[C@H](CC(=O)O)OC(=O)C[C@@H](CCCCCCC)O[C@@H]1O[C@@H](C)[C@H](O)[C@@H](O)[C@H]1O[C@@H]1O[C@@H](C)[C@H](O)[C@@H](O)[C@H]1O
IC50 (Pseudomonas aeruginosa [16]): 75 µg/mL (≈ 115 µM)

C[C@H]1O[C@H](O[C@H]2O[C@H](CO)[C@@H](O)[C@H](O)[C@H]2O)[C@H](O)[C@@H](O)[C@@H]1O
MIC [12]: > 500 µM | MBIC [13]: 100 µM

CNC(=O)c1cccc(-c2ccc(O[C@H]3O[C@H](CO)[C@@H](O)[C@H](O)[C@@H]3O)c(C(F)(F)F)c2)c1
EC>90 [1]: 32 nM

CO[C@H]1O[C@H](CO)[C@@H](O)[C@H](O)[C@@H]1O
Ratio [14]: 1

OC[C@H]1O[C@H](O[C@H]2O[C@H](CO)[C@@H](O)[C@H](O)[C@H]2O)[C@@H](O)[C@@H](O)[C@@H]1O
MIC [12]: > 500 µM | MBIC [13]: >500 µM

O=c1oc2c(O)c(O)cc3c(=O)oc4c(O)c(O)cc1c4c23 [ELLAGIC ACID]
MBIC50 (Staphylococcus aureus [2]): 128 µg/mL | MBIC90 (Staphylococcus aureus [2]): >512 µg/mL | MIC50 (Staphylococcus aureus [2]): > 512 µg/mL

[N-]=[N+]=N[C@H]1[C@@H](O[C@H]2O[C@H](CO)[C@@H](O)[C@H](O)[C@H]2O)O[C@H](CO)[C@@H](O)[C@@H]1O
MIC [12]: > 500 µM | MBIC [13]: 500 µM

[N-]=[N+]=NC[C@H]1O[C@H](O[C@H]2O[C@H](CO)[C@@H](O)[C@H](O)[C@H]2O)[C@H](O)[C@@H](O)[C@@H]1O
MIC [12]: > 500 µM | MBIC [13]: 50 µM

C[C@@H]1O[C@H](CNC(=O)/C=C/c2ccccc2)[C@@H](O)[C@H](O)[C@@H]1O
Kd [3]: 3.09 µM | IC50 [4]: 2.5 µM | Kd [5]: 2.59 µM

OC[C@H]1O[C@H](O[C@H]2O[C@H](CO)[C@@H](O)[C@H](O)[C@H]2F)[C@H](O)[C@@H](O)[C@@H]1O
MIC [12]: > 500 µM | MBIC [13]: 100 µM

O=c1oc2c(O[C@@H]3OC[C@@H](O)[C@H](O)[C@H]3O)c(O)cc3c(=O)oc4c(O)c(O)cc1c4c23
MBIC50 (Streptococcus agalactiae [17]): 512 µg/mL | MBIC50 (Staphylococcus aureus [2]): 64 µg/mL | MBIC90 (Staphylococcus aureus [2]): >512 µg/mL | MIC50 (Staphylococcus aureus [2]): 32 µg/mL (≈ 73.7 µM) | MBIC50 (Streptococcus agalactiae [18]): 512 µg/mL

CNC(=O)c1cc(C(=O)NC)cc(-c2ccc(O[C@H]3O[C@H](CO)[C@@H](O)[C@H](O)[C@@H]3O)cc2)c1
EC>90 [1]: 375 nM

CCCCCCC[C@H](CC(=O)N1CCCCC1)OC(=O)C[C@@H](CCCCCCC)O[C@@H]1O[C@@H](C)[C@H](O)[C@@H](O)[C@H]1O[C@@H]1O[C@@H](C)[C@H](O)[C@@H](O)[C@H]1O
Activity (Serratia marcescens): >80% | Activity (Staphylococcus aureus [15]): >90%

O=c1oc2c(O[C@@H]3OC[C@H](O)[C@H](O)[C@H]3O)c(O)cc3c(=O)oc4c(O)c(O)cc1c4c23
MBIC50 (Streptococcus agalactiae [17]): 512 µg/mL | MBIC50 (Streptococcus agalactiae [18]): 512 µg/mL

CNC(=O)c1cc(C(=O)NC)cc(-c2ccc(O[C@H]3O[C@H](CO)[C@@H](O)[C@H](O)[C@@H]3O)c(C(F)(F)F)c2)c1
EC>90 [1]: 8 nM

O=C(N/N=C/c1ccc(Oc2ccc(/C=N/NC(=O)c3ccc(O[C@@H]4O[C@H](CO)[C@H](O)[C@H](O)[C@H]4O)cc3)cc2)cc1)c1ccc(O[C@@H]2O[C@H](CO)[C@H](O)[C@H](O)[C@H]2O)cc1
IC50 [8]: 5 µM | Kd [7]: 10.8 µM

O=C(NC[C@]1(O)CO[C@H](CN2C(=O)c3ccccc3C2=O)[C@H]1O)c1ccccc1
EC50 (Staphylococcus aureus [9]): 8.29 µM | EC50 (Staphylococcus aureus [10]): 5.01 µM

OC[C@H]1O[C@H](O[C@H]2O[C@H](CF)[C@@H](O)[C@H](O)[C@H]2O)[C@H](O)[C@@H](O)[C@@H]1O
MIC [12]: > 500 µM | MBIC [13]: 100 µM

O=c1[nH]ccc2ccc(-c3ccc(O[C@H]4O[C@H](CO)[C@@H](O)[C@H](O)[C@@H]4O)cc3)cc12
EC>90 [1]: 100 nM
